Drawing on US7998988B2, “Biphenyl compounds useful in the treatment or prevention of cardiovascular disorders” (Bayer Schering Pharma Aktiengellschaft, priority 2005, dated 2011), this text covers IC50 for 19 compounds.

The subject of the first test is saphenous artery rings. Put plainly: Vasorelaxant effect in vitro (phenylephrine-contracted artery rings). It is filed as cell-based. To be noted: Oryctolagus cuniculus, rabbit saphenous artery rings, contraction induced by phenylephrine. As for the experimental part:
Rabbits are anesthetized and sacrificed by intravenous injection of thiopental sodium (about 50 mg/kg) and exsanguinated. The saphenous artery is removed and divided into rings 3 mm wide. The rings are mounted singly on in each case a pair of triangular hooks open at the end and made of 0.3 mm-thick special wire (Remanium®). Each ring is placed under an initial tension in 5 ml organ baths with Krebs-Henseleit solution which is at 37° C., is gassed with 95% 02/5% CO2 and has the following composition: NaCl 119 mM; KCl 4.8 mM; CaCl2×2H2O 1 mM; MgSO4×7 H2O 1.4 mM; KH2PO4 1.2 mM; NaHCO3 25 mM; glucose 10 mM; bovine serum albumin 0.001%. The force of contraction is detected with Statham UC2 cells, amplified and digitized via A/D converters (DAS-1802 HC, Keithley Instruments, Munich) and recorded in parallel on chart recorders. Contractions are induced by addition of phenylephrine.
After several (generally 4) control cycles, the substance to be investigated is added in each further run in increasing dosage, and the height of the contraction achieved under the influence of the test substance is compared with the height of the contraction reached in the last preceding run. The concentration necessary to reduce the contraction reached in the preceding control by 50% is calculated from this (IC50). The standard application volume is 5 μl. The proportion of DMSO in the bath solution corresponds to 0.1%.
In the case of `O=C(O)c1ccc(CCC(/C=C\c2ccccc2OC(F)(F)F)Cc2ccc(-c3noc(=O)[nH]3)cc2)cc1` (single isomer, unassigned) [Example 96], the IC50 worked out at 1330 nM.

`CCCCCCOc1ccccc1/C=C/C(CCc1ccc(C(=O)O)cc1)Cc1ccc(-c2noc(=O)[nH]2)cc1` (single isomer, unassigned) [Example 95] returned an IC50 of 410 nM. Compared with the last compound, the IC50 is about 3.2-fold lower.

The compound `CC(C)(C)c1ccc(COc2ccccc2/C=C/C(CCc2ccc(C(=O)O)cc2)Cc2ccc(-c3n[nH]c(=O)[nH]3)cc2)cc1` (stereo not shown) [Example 80, 4-{(4E)-5-{2-[(4-tert-Butylbenzyl)oxy]phenyl}-3-[4-(5-oxo-4,5-dihydro-1H-1,2,4-triazol-3-yl)benzyl]pent-4-en-1-yl}benzoic acid] showed an IC50 of 74 nM.

As to `CC(C)(C)c1ccc(COc2ccccc2/C=C/C(CCCCC(=O)O)Cc2ccc(-c3n[nH]c(=O)o3)cc2)cc1` (stereo not shown) [Example 85, E-8-[2-(4-tert-Butylbenzyloxy)phenyl]-6-[4-(5-oxo-4,5-dihydro-[1,3,4]oxadiazol-2-yl)benzyl]oct-7-enoic acid], half-maximal inhibition (IC50) required 58 nM.

`CC(C)(C)c1ccc(COc2ccc(F)cc2/C=C/C(CCc2ccc(-c3noc(=O)[nH]3)cc2)Cc2ccc(C(=O)O)cc2)cc1` (single isomer, unassigned) [Example 51]: it took 505 nM to reach half-maximal inhibition (IC50). Compared with the last compound, the IC50 is about 8.7-fold higher.

`CCCCCOc1ccccc1/C=C/C(CCc1ccc(C(=O)O)cc1)Cc1ccc(-c2noc(=O)[nH]2)cc1` (single isomer, unassigned) [Example 92] showed an IC50 of 390 nM.

On to `CC(C)(C)c1ccc(COc2ccccc2/C=C/C(CCc2ccc(C(=O)O)cc2)Cc2ccc(-c3n[nH]c(N)n3)cc2)cc1` (stereo not shown) [Example 81, 4-((4E)-3-[4-(5-Amino-1H-1,2,4-triazol-3-yl)benzyl]-5-{2-[(4-tert.-butylbenzyl)oxy]phenyl}pent-4-en-1-yl)benzoic acid], for which the IC50 is 422 nM.

`CC(C)(C)c1ccc(COc2ccccc2/C=C/C(CCc2ccc(C(=O)O)cc2)Cc2ccc(-c3noc(=O)[nH]3)cc2)cc1` (single isomer, unassigned) [Example 66] had an IC50 of 263 nM. Compared with the last compound, the IC50 is about 1.6-fold lower.

Take `CC(C)(C)c1ccc(COc2ccccc2/C=C/C(CCCCC(=O)O)CCc2ccc(-c3noc(=O)[nH]3)cc2)cc1` (single isomer, unassigned) [Example 71, E-8-[2-(4-tert-Butylbenzyloxy)phenyl]-6-{2-[4-(5-oxo-4,5-dihydro-[1,2,4]oxadiazol-3-yl)phenyl]-ethyl}oct-7-enoic acid]: half-maximal inhibition (IC50) was put at 898 nM. Compared with the last compound, the IC50 is about 3.4-fold higher.

Turning to `O=C(O)c1ccc(CC(/C=C/c2ccccc2OCc2ccc(-c3ccc(C(F)(F)F)cc3)cc2)CCc2ccc(-c3noc(=O)[nH]3)cc2)cc1` (single isomer, unassigned) [Example 18], the IC50 is 490 nM.

Turning to `CC(C)(C)c1ccc(COc2ccccc2/C=C/C(CCCCC(=O)O)CCc2ccc(-c3n[nH]c(=O)o3)cc2)cc1` (stereo not shown) [Example 74], the 50% inhibitory concentration (IC50) is 290 nM.

In the case of `COc1ccc(CCc2ccc(F)cc2/C=C/C(CCc2ccc(-c3noc(=O)[nH]3)cc2)Cc2ccc(C(=O)O)cc2)cc1` (single isomer, unassigned) [Example 11, E-4-(4-{5-Fluoro-2-[2-(4-methoxyphenyl)ethyl]phenyl}-2-{2-[4-(5-oxo-4,5-dihydro-[1,2,4]oxadiazol-3-yl)phenyl]ethyl}but-3-enyl)benzoic acid], it took 724 nM to reach half-maximal inhibition (IC50). Compared with the last compound, the IC50 is about 2.5-fold higher.

`O=C(O)c1ccc(CCC(/C=C\c2ccccc2OCc2ccc(-c3ccc(C(F)(F)F)cc3)cc2)Cc2ccc(-c3noc(=O)[nH]3)cc2)cc1` (single isomer, unassigned) [Example 57] gave an IC50 of 714 nM.

In turn, `O=C(O)c1ccc(CN(CCc2ccc(-c3noc(=O)[nH]3)cc2)CCc2ccccc2OCc2ccc(-c3ccc(C(F)(F)F)cc3)cc2)cc1` [Example 1, 4-[({2-[4-(5-Oxo-4,5-dihydro-[1,2,4]oxadiazol-3-yl)phenyl]ethyl}-{2-[2-(4′-trifluoromethylbiphenyl-4-ylmethoxy)phenyl]ethyl}amino)methyl]benzoic acid] came in with an IC50 of 26 nM.

Consider `CC(C)(C)c1ccc(COc2ccccc2/C=C/C(CCc2ccc(C(=O)O)cc2)Cc2ccc(-c3n[nH]c(=O)o3)cc2)cc1` (single isomer, unassigned) [Example 78, 4-{(4E)-5-{2-[(4-tert-Butylbenzyl)oxy]phenyl}-3-[4-(5-oxo-4,5-dihydro-1,3,4-oxadiazol-2-yl)benzyl]pent-4-en-1-yl}benzoic acid], for which the IC50 turned out to be 13 nM.

Regarding `CC(C)(C)c1ccc(COc2ccccc2/C=C/C(CCc2ccc(-c3n[nH]c(=S)[nH]3)cc2)Cc2ccc(C(=O)O)cc2)cc1` (stereo not shown) [Example 76, 4-((3E)-4-{2-[(4-tert-Butylbenzyl)oxy]phenyl}-2-{2-[4-(5-thioxo-4,5-dihydro-1H-1,2,4-triazol-3-yl)phenyl]ethyl}but-3-en-1-yl)benzoic acid], the 50% inhibitory concentration (IC50) worked out at 851 nM.

The test is the same for the next values; noted with them: rabbit saphenous artery rings, contraction induced by phenylephrine.
For the compound `O=C(O)c1ccc(CC(/C=C/c2ccccc2OCc2ccc(-c3ccc(C(F)(F)F)cc3)cc2)CCc2ccc(-c3noc(=O)[nH]3)cc2)cc1` (single isomer, unassigned) [Example 19], the IC50 was determined as 850 nM. In other words, the sub-micromolar range.

As for `O=C(O)c1ccc(CCC(/C=C/c2ccccc2OCc2ccc(-c3ccc(C(F)(F)F)cc3)cc2)Cc2ccc(-c3noc(=O)[nH]3)cc2)cc1` (single isomer, unassigned) [Example 56, E-4-{3-[4-(5-Oxo-4,5-dihydro-[1,2,4]oxadiazol-3-yl)benzyl]-5-[2-(4′-trifluoromethylbiphenyl-4-ylmethoxy)phenyl]pent-4-enyl}benzoic acid], the IC50 was 635 nM.

In the case of `CC(C)(C)c1ccc(COc2ccccc2/C=C/C(CCc2ccc(C(=O)O)cc2)Cc2ccc(-c3noc(=O)[nH]3)cc2)cc1` (single isomer, unassigned) [Example 67], 153 nM corresponded to half-maximal inhibition (IC50).
